Laboratory results: US8530648B2, “Diaza-spiro[5.5]undecanes” (Novartis AG, priority 2009, dated 2013)

Key:
hOx1R = hOx1R (Homo sapiens (Human), UniProt O43613); experiment: Calcium accumulation in cells (FLIPR), hOx1R; type: cell-based; settings: for inhibition at 10 µM: measured at a concentration of 10 μM of compound; for Ki: inhibition of orexin A induced calcium accumulation, Cheng and Prusoff correction
Description: (§1) Calcium Accumulation in Cells (FLIPR):
(§2) Cells expressing human orexin 1 or human orexin 2 receptors, were seeded at 8,000 cells/well in 384 well black-walled clear bottom, poly-D-lysine coated plates. After 24 h, the medium was removed and cells were washed once with phosphate buffered saline and serum-deprived overnight in assay buffer (130 mM NaCl, 5.4 mM KCl, 1.8 mM CaCl2, 0.8 mM MgSO4, 0.9 mM NaH2PO4, 25 mM glucose, 20 mM HEPES, pH 7.4) containing bovine serum albumin (1% w/v).
(§3) On the day of the experiment, the cells seeded in black plates were treated with assay buffer containing the Ca^2+ sensitive fluorescent dye Fluo-4-AM (2 μM), and probenecid (0.1 mM). After 1 h plates were washed twice with, and resuspended in, assay buffer containing probenecid (0.1 mM) using a multi plate washer. […] Fluorescence measurements were then continued every 1 S for 120 S followed by every 4 S for 240 S.
(§4) The measurements were typically made in two sequences:
(§5) Compounds of formula I were tested usually in a concentration range from 10^−9 M to 10^−5 M.
(§6) In the second round, performed one hour later (to allow for equilibration), Orexin A was tested either in the absence (calibration curves, Orexin A agonist controls) or in the presence of compounds of formula I to determine antagonism.

hOx2R = hOx2R (Homo sapiens (Human), UniProt O43614); experiment: Calcium accumulation in cells (FLIPR), hOx2R; type: cell-based; settings: for Ki: inhibition of orexin A induced calcium accumulation, Cheng and Prusoff correction; for inhibition at 10 µM: measured at a concentration of 10 μM of compound
Description: as §1, §2, §3, §4, §5, §6

Sequence of hOx1R (O43613 whole entry): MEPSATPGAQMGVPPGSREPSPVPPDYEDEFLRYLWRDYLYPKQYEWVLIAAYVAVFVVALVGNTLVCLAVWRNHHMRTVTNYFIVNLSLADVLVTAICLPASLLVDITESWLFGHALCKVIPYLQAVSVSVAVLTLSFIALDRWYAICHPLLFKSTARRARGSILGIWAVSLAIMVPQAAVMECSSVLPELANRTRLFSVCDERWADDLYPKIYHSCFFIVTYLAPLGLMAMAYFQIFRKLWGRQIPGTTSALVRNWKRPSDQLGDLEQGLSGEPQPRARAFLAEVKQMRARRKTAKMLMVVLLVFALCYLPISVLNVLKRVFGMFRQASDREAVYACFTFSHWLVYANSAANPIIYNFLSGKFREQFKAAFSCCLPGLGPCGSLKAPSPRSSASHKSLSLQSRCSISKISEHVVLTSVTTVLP
Sequence of hOx2R (O43614 whole entry): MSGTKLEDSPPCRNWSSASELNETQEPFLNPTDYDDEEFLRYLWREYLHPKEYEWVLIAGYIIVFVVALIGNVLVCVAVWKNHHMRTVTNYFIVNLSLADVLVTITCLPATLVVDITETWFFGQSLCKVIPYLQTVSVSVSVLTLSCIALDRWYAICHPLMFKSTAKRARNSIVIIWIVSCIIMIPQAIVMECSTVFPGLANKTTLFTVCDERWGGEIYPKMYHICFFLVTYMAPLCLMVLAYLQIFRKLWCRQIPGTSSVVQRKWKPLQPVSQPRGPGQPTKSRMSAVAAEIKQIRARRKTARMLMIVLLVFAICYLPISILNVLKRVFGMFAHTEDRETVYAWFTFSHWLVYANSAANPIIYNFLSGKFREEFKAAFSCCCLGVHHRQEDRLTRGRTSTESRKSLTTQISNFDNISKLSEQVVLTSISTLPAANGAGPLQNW

Structure (SMILES) | inhibition at 10 µM (hOx1R) [%] | Ki (hOx2R) [nM] | Ki (hOx1R) [nM] | inhibition at 10 µM (hOx2R) [%]
Cc1cc(C)nc(CN2CCCC3(CCN(c4cnc5ccccc5n4)CC3)C2=O)c1 [Example 106, 2-((4,6-dimethylpyridin-2-yl)methyl)-9-(quinoxalin-2-yl)-2,9-diazaspiro[5.5]undecan-1-one] | 35 | 1360 | – | –
Cn1ncc2cccc(CN3CCCC4(CCN(c5cnc6ccccc6n5)CC4)C3=O)c21 [Example 107, 2-((1-methyl-1H-indazol-7-yl)methyl)-9-(quinoxalin-2-yl)-2,9-diazaspiro[5.5]undecan-1-one] | – | 115 | 728 | –
Cn1ncc2c(CN3CCCC4(CCN(c5cnc6ccccc6n5)CC4)C3=O)cccc21 [Example 108, 2-((1-methyl-1H-indazol-4-yl)methyl)-9-(quinoxalin-2-yl)-2,9-diazaspiro[5.5]undecan-1-one] | – | 196 | 1400 | –
Cc1nnc(-c2ccc(CN3CCCC4(CCN(c5cnc6ccccc6n5)CC4)C3=O)cc2)o1 [Example 109, 2-(4-(5-methyl-1,3,4-oxadiazol-2-yl)benzyl)-9-(quinoxalin-2-yl)-2,9-diazaspiro[5.5]undecan-1-one] | – | 1240 | 3140 | –
O=C1N(Cc2cncn2-c2ccccc2)CCCC12CCN(c1cnc3ccccc3n1)CC2 [Example 110, 2-((1-phenyl-1H-imidazol-5-yl)methyl)-9-(quinoxalin-2-yl)-2,9-diazaspiro[5.5]undecan-1-one] | – | 945 | 4210 | –
COc1ccccc1-n1ccnc1CN1CCCC2(CCN(c3cnc4ccccc4n3)CC2)C1=O [Example 112, 2-((1-(2-methoxyphenyl)-1H-imidazol-2-yl)methyl)-9-(quinoxalin-2-yl)-2,9-diazaspiro[5.5]undecan-1-one] | – | 1600 | 3520 | –
Cc1oc(-c2cscn2)nc1CN1CCCC2(CCN(c3cnc4ccccc4n3)CC2)C1=O [Example 114, 2-((5-methyl-2-(thiazol-4-yl)oxazol-4-yl)methyl)-9-(quinoxalin-2-yl)-2,9-diazaspiro[5.5]undecan-1-one] | – | 831 | 3790 | –
Cc1cc(C)n(-c2ccccc2CN2CCCC3(CCN(c4cnc5ccccc5n4)CC3)C2=O)n1 [Example 115, 2-(2-(3,5-dimethyl-1H-pyrazol-1-yl)benzyl)-9-(quinoxalin-2-yl)-2,9-diazaspiro[5.5]undecan-1-one] | 57 | 1200 | – | –
Cc1oc(-c2ccoc2)nc1CN1CCCC2(CCN(c3cnc4ccccc4n3)CC2)C1=O [Example 116, 2-((2-(furan-3-yl)-5-methyloxazol-4-yl)methyl)-9-(quinoxalin-2-yl)-2,9-diazaspiro[5.5]undecan-1-one] | – | – | 3790 | 53
Cc1ncc(CN2CCCC3(CCN(c4cnc5ccccc5n4)CC3)C2=O)c2c1OC(C)(C)OC2 [Example 117, 9-(quinoxalin-2-yl)-2-((2,2,8-trimethyl-4H-[1,3]dioxino[4,5-c]pyridin-5-yl)methyl)-2,9-diazaspiro[5.5]undecan-1-one] | – | 249 | 2380 | –
O=C1N(Cc2cncn2Cc2ccccc2)CCCC12CCN(c1cnc3ccccc3n1)CC2 [Example 118, 2-((1-benzyl-1H-imidazol-5-yl)methyl)-9-(quinoxalin-2-yl)-2,9-diazaspiro[5.5]undecan-1-one] | – | 197 | 1840 | –
Cc1nc(-c2ccccc2)oc1CN1CCCC2(CCN(c3cnc4ccccc4n3)CC2)C1=O [Example 119, 2-((4-methyl-2-phenyloxazol-5-yl)methyl)-9-(quinoxalin-2-yl)-2,9-diazaspiro[5.5]undecan-1-one] | – | 291 | 1900 | –
O=C1N(Cc2cc(F)cc3c2OCOC3)CCCC12CCN(c1cnc3ccccc3n1)CC2 [Example 120, 2-((6-fluoro-4H-benzo[d][1,3]dioxin-8-yl)methyl)-9-(quinoxalin-2-yl)-2,9-diazaspiro[5.5]undecan-1-one] | – | 125 | 700 | –
O=C1N(Cc2cc3ccccc3[nH]2)CCCC12CCN(c1cnc3ccccc3n1)CC2 [Example 121, 2-((1H-indol-2-yl)methyl)-9-(quinoxalin-2-yl)-2,9-diazaspiro[5.5]undecan-1-one] | – | 1660 | 2530 | –
O=C1N(Cc2nnnn2-c2ccccc2)CCCC12CCN(c1cnc3ccccc3n1)CC2 [Example 122, 2-((1-phenyl-1H-tetrazol-5-yl)methyl)-9-(quinoxalin-2-yl)-2,9-diazaspiro[5.5]undecan-1-one] | 31 | 725 | – | –
O=C1N(Cc2ccc3[nH]ccc3c2)CCCC12CCN(c1cnc3ccccc3n1)CC2 [Example 123, 2-((1H-indol-5-yl)methyl)-9-(quinoxalin-2-yl)-2,9-diazaspiro[5.5]undecan-1-one] | 11 | – | – | 24

Structure (SMILES) | inhibition at 10 µM (hOx1R) [%] | Ki (hOx2R) [nM] | Ki (hOx1R) [nM] | inhibition at 10 µM (hOx2R) [%]
N#Cc1ccccc1CN1CCCC2(CCN(c3cnc4ccccc4n3)CC2)C1=O [Example 124, 2-((1-oxo-9-(quinoxalin-2-yl)-2,9-diazaspiro[5.5]undecan-2-yl)methyl)benzonitrile] | – | 140 | 932 | –
O=C1N(Cc2cccc3c2CCN3)CCCC12CCN(c1cnc3ccccc3n1)CC2 [Example 126, 2-(indolin-4-ylmethyl)-9-(quinoxalin-2-yl)-2,9-diazaspiro[5.5]undecan-1-one] | – | 267 | 1250 | –
O=C1N(Cc2cc(-n3cccn3)ccn2)CCCC12CCN(c1cnc3ccccc3n1)CC2 [Example 127, 2-((4-(1H-pyrazol-1-yl)pyridin-2-yl)methyl)-9-(quinoxalin-2-yl)-2,9-diazaspiro[5.5]undecan-1-one] | – | 299 | 2340 | –
O=C1N(Cc2c[nH]c3ccccc23)CCCC12CCN(c1nc3cc(Cl)ccc3o1)CC2 [Example 131, 2-((1H-indol-3-yl)methyl)-9-(5-chlorobenzo[d]oxazol-2-yl)-2,9-diazaspiro[5.5]undecan-1-one] | 48 | 524 | – | –
O=C1N(Cc2cccc3c2OCCN3)CCCC12CCN(c1cnc3ccccc3n1)CC2 [Example 132, 2-((3,4-dihydro-2H-benzo[b][1,4]oxazin-8-yl)methyl)-9-(quinoxalin-2-yl)-2,9-diazaspiro[5.5]undecan-1-one] | – | 555 | 3180 | –
Cc1[nH]c2ccccc2c1CN1CCCC2(CCN(c3cnc4ccccc4n3)CC2)C1=O [Example 133, 2-((2-methyl-1H-indol-3-yl)methyl)-9-(quinoxalin-2-yl)-2,9-diazaspiro[5.5]undecan-1-one] | – | 244 | 1150 | –
O=C1CCCC2(CCN(c3cnc4ccccc4n3)CC2)N1Cc1ccccc1 [Example 134, 1-benzyl-9-(quinoxalin-2-yl)-1,9-diazaspiro[5.5]undecan-2-one] | – | 161 | 1440 | –
O=C1CCCC2(CCN(c3cnc4ccccc4n3)CC2)N1Cc1noc2ccccc12 [Example 135, 1-(benzo[d]isoxazol-3-ylmethyl)-9-(quinoxalin-2-yl)-1,9-diazaspiro[5.5]undecan-2-one] | – | 185 | 242 | –
O=C1CCCC2(CCN(c3nnc(-c4ccccc4)o3)CC2)N1Cc1cccc2[nH]ccc12 [Example 137, 1-((1H-indol-4-yl)methyl)-9-(5-phenyl-1,3,4-oxadiazol-2-yl)-1,9-diazaspiro[5.5]undecan-2-one] | – | 656 | 509 | –
O=C1CCCC2(CCN(c3nc4ccccc4[nH]3)CC2)N1Cc1cccc2[nH]ccc12 [Example 138, 1-((1H-indol-4-yl)methyl)-9-(1H-benzo[d]imidazol-2-yl)-1,9-diazaspiro[5.5]undecan-2-one] | – | 1970 | 3790 | –
O=C1CCCC2(CCN(c3nc4ccc(Cl)cc4o3)CC2)N1Cc1cccc2[nH]ccc12 [Example 139, 1-((1H-indol-4-yl)methyl)-9-(6-chlorobenzo[d]oxazol-2-yl)-1,9-diazaspiro[5.5]undecan-2-one] | – | 105 | 541 | –
O=C1CCCC2(CCN(c3cnc4ccccc4n3)CC2)N1Cc1c[nH]c2ncccc12 [Example 141, 1-((1H-pyrrolo[2,3-b]pyridin-3-yl)methyl)-9-(quinoxalin-2-yl)-1,9-diazaspiro[5.5]undecan-2-one] | – | 404 | 1980 | –
Cn1nc(CN2CCCC3(CCN(c4cnc5ccccc5n4)CC3)C2=O)c2ccccc21 [Example 142, 2-((1-methyl-1H-indazol-3-yl)methyl)-9-(quinoxalin-2-yl)-2,9-diazaspiro[5.5]undecan-1-one] | – | 212 | 925 | –
CN1CCOc2c(CN3CCCC4(CCN(c5cnc6ccccc6n5)CC4)C3=O)cccc21 [Example 144, 2-((4-methyl-3,4-dihydro-2H-benzo[b][1,4]oxazin-8-yl)methyl)-9-(quinoxalin-2-yl)-2,9-diazaspiro[5.5]undecan-1-one] | – | 596 | 3250 | –
O=C1N(Cc2c[nH]c3ccccc23)CCCC12CCN(c1cnc3nccnc3c1)CC2 [Example 146, 2-((1H-indol-3-yl)methyl)-9-(pyrido[3,2-b]pyrazin-7-yl)-2,9-diazaspiro[5.5]undecan-1-one] | 29 | 621 | – | –
Cn1nccc1-c1ccccc1CN1CCCC2(CCN(c3cnc4ccccc4n3)CC2)C1=O [Example 148, 2-(2-(1-methyl-1H-pyrazol-5-yl)benzyl)-9-(quinoxalin-2-yl)-2,9-diazaspiro[5.5]undecan-1-one] | 30 | – | – | 32
